Molecular target: T1, Tyrosine-protein phosphatase non-receptor type 11 (Homo sapiens, UniProt Q06124)
T1 sequence (Q06124 whole entry): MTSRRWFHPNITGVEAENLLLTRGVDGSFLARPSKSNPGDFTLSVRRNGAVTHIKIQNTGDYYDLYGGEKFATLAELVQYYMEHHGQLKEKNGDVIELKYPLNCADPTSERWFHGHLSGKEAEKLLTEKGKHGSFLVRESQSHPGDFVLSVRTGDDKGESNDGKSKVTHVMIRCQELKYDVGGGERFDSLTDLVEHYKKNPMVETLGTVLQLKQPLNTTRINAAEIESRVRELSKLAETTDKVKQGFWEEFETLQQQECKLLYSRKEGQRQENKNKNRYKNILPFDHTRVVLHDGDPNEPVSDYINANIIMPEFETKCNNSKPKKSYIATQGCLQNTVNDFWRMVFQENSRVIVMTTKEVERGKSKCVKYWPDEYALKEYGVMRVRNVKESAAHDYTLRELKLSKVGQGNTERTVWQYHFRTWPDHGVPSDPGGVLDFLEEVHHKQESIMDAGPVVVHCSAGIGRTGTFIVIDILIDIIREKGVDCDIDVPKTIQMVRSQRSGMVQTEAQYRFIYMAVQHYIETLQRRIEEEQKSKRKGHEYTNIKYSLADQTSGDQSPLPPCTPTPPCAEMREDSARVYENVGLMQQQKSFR
Assay: Allosteric inhibition of wild type SHP2 (unknown origin) assessed as dephosphorylation of DIFMUP by fluorescence based envision microplate reader analysis

`FC(F)(F)c1ncccc1Sc1cnc2[nH]c(N3CCCC4(CNCCO4)C3)nc2n1` (stereo unspecified) showed an IC50 greater than 3.2 µM.
